From patent publication US5143911A, “Antibiotic C-3 di-hydroxyphenyl substituted cephalosporin compounds, compositions and method of use thereof” (Bristol-Myers Squibb Company, priority 1990, dated 1992) come the findings set out here.

The structures appear in SMILES notation. Converted amounts (≈) assume the structure as drawn.

One experiment concerns B. subtilis PCI 219. Particulars: Bacillus subtilis, PCI219, 18 h, pH 7.2.
For another experiment, the system named is S. marcescens IPM-16. Particulars: Serratia marcescens, IPM16, 18 h, pH 7.2.
Another experiment relates to S. aureus Smith. The experiment in a line: MIC against the infecting organism (Table 2). Particulars: Staphylococcus aureus.
Another experiment concerns B. fragilis CUH-108. In words: In vitro activity against anaerobes (MIC), two-fold serial agar dilution, GAM agar. The format is cell-based. Particulars: Bacteroides fragilis, CUH108, Gn, Beta-Lactamase(+), Clindamycin-resistant. As to the method: In vitro activity against anaerobic bacteria was determined on eight strains of B. fragilis by two-fold serial agar dilution method in GAM agar.

The test system of a further experiment is M. morgani 1510/9. Particulars: 18 h, pH 7.2.
The next experiment has as its system E. coli Juhl A15119. Particulars: Escherichia coli, JUHLA15119, 18 h, pH 7.2.
In the next experiment the test system is P. rettgeri IPM-14. Particulars: Providencia rettgeri, IPM14, 18 h, pH 7.2.
In the next experiment the test system is E. coli Juhl. The experiment in a line: MIC against the infecting organism (Table 2). Particulars: Escherichia coli.
Another experiment concerns P. aeruginosa 9843A. In words: MIC against the infecting organism (Table 2). Particulars: Pseudomonas aeruginosa.
The subject of a further experiment is X. maltophilia GN 12873. Particulars: Stenotrophomonas maltophilia, GN12873, 18 h, pH 7.2.
For a further experiment, the system named is M. morgani 1510. Particulars: 18 h, pH 7.2.
A further experiment deals with B. fragilis A 22534. In words: In vitro activity against anaerobes (MIC), two-fold serial agar dilution, GAM agar. Particulars: Bacteroides fragilis, A22534, Gn, Beta-Lactamase(+). The format is cell-based. In general terms: Agar dilution tests growth on a series of plates holding different concentrations.
In the next experiment the test system is Ps. aeruginosa (7). In words: MIC, two-fold serial agar dilution, Mueller-Hinton agar (geometric mean, group Gn-III). It is filed as cell-based. Particulars: Pseudomonas aeruginosa, 7 strains. As to the method: For a primary evaluation of some representative compounds of this invention, minimum inhibitory concentrations (MIC's) were determined against 32 strains of test organisms by two-fold serial agar dilution method in Mueller-Hinton agar.
GnIII: Ps. aeruginosa (7)

The test system of a further experiment is S. aureus 4-1015 (MRSA). Particulars: Staphylococcus aureus, 18 h, pH 7.2.
The next experiment has as its system B. fragilis A 22021. In words: In vitro activity against anaerobes (MIC), two-fold serial agar dilution, GAM agar. The format is cell-based. Particulars: Bacteroides fragilis, A22021, Gn, Beta-Lactamase(-).
Another experiment has as its system M. luteus 1001. Particulars: Micrococcus luteus, 1001, 18 h, pH 7.2.
For a further experiment, the system named is P. aeruginosa KKA 19. Particulars: Pseudomonas aeruginosa, KKA19, 18 h, pH 7.2.
The next experiment has as its system B. fragilis A 22053. In words: In vitro activity against anaerobes (MIC), two-fold serial agar dilution, GAM agar. Particulars: Bacteroides fragilis, A22053, Gn, Beta-Lactamase(-). It is filed as cell-based.
The next experiment concerns P. aeruginosa IPM-8. Particulars: Pseudomonas aeruginosa, IPM8, 18 h, pH 7.2.
A further experiment has as its system C. perfringens A9635. In words: microbe, parasite or virus in culture. The format is cell-based. Particulars: Clostridium perfringens.
The next experiment concerns P. aeruginosa IPM-9. Particulars: Pseudomonas aeruginosa, IPM9, 18 h, pH 7.2.
A further experiment concerns P. cepacia A21213. The format is cell-based. Particulars: Burkholderia cepacia, pH 7.2, 32° C. 18 hr, 10^6 cells/ml.

As for `CO/N=C(\C(=O)NC1C(=O)N2C(C(=O)O)=C(/C=C/COC(=O)c3ccc(O)c(O)c3)CS[C@H]12)c1csc(N)n1` (stereo partly shown) [Ia, 7-[(Z)-2-(2-Aminothiazol-4-yl)-2-methoxyiminoacetamido]-3-[(E)-3-(3,4-dihydroxybenzoyloxy)-1-propen-1-yl]-3-cephem-4-carboxylic acid], the MIC is 0.2 µg/mL (≈ 0.347 µM) against B. subtilis PCI 219; over 100 µg/mL in the experiment with S. marcescens IPM-16; 1.6 µg/mL (≈ 2.78 µM) against S. aureus Smith; 25 µg/mL (≈ 43.4 µM) against B. fragilis CUH-108; 0.05 µg/mL (≈ 0.0869 µM) in the experiment on M. morgani 1510/9; 0.05 µg/mL (≈ 0.0869 µM) with E. coli Juhl A15119. Besides, the MIC is 0.05 µg/mL (≈ 0.0869 µM) in the experiment on P. rettgeri IPM-14; 0.1 µg/mL (≈ 0.174 µM) against E. coli Juhl; 3.1 µg/mL (≈ 5.39 µM) against P. aeruginosa 9843A; 50 µg/mL (≈ 86.9 µM) against X. maltophilia GN 12873; 3.1 µg/mL (≈ 5.39 µM) with M. morgani 1510; over 50 µg/mL against B. fragilis A 22534. The MIC was 1.9 µg/mL (≈ 3.3 µM) in the experiment with Ps. aeruginosa (7); 12.5 µg/mL (≈ 21.7 µM) with S. aureus 4-1015 (MRSA); 0.2 µg/mL (≈ 0.347 µM) with B. fragilis A 22021; 0.1 µg/mL (≈ 0.174 µM) against M. luteus 1001; 50 µg/mL (≈ 86.9 µM) in the experiment with P. aeruginosa KKA 19; 0.8 µg/mL (≈ 1.39 µM) against B. fragilis A 22053. Moreover, the MIC in the experiment with P. aeruginosa IPM-8 was 6.3 µg/mL (≈ 10.9 µM); with C. perfringens A9635, 0.2 µg/mL (≈ 0.347 µM); in the experiment with P. aeruginosa IPM-9, 6.3 µg/mL (≈ 10.9 µM); in the experiment with P. cepacia A21213, over 100 µg/mL.
